Source: US8435966B2, “Associations of xanthogenates and cyclodextrins, and their use” (Biosphings AG, priority 2006, dated 2013)
Like-named read-outs stand apart in the source and are kept apart here.

Legend:
[1] = Stabilization of various xanthates by methyl-beta-cyclodextrin at 60° C. (decomposition in water, detected by pH value and calibration curves); conditions: 24 h at 60° C.; for % Decomposition − Cyclodextrin / % Decomposition + Cyclodextrin: 10 mg/ml xanthate in water; for % Decomposition − Cyclodextrin: absence of cyclodextrin; for % Decomposition + Cyclodextrin: presence of 100 mg/ml methyl-beta-cyclodextrin; for Stabilization factor: decomposition without / with methyl-beta-cyclodextrin
Procedure: Solutions each containing 10 mg/ml methylxanthate, propylxanthate, butylxanthate, heptyixanthate, hexylxanthate, decylxanthate, isopropylxanthate, or tricyclo[5,2,1,0^2,6]-decylxanthate (D 609) in water were incubated for 24 h at 60° C. either in the presence or absence of 100 mg/ml methyl-beta-cyclodextrin. Xanthates decompose in aqueous medium into the corresponding alcohol, CS2, and, depending on the type of xanthate salt, KOH or NaOH. The decomposition of xanthates can therefore be detected quantitatively by measuring the pH value and using calibration curves.

erythrocytes = test: Hemolytic effect of xanthates (OD 450 of supernatants of diluted blood); conditions: for 50% hemolysis (IC50): 30 minutes at room temperature
Procedure: Venous blood was taken from female Balb C mice by retroorbital puncture and heparin was added to the blood. The blood was then diluted 1:75 using phosphate-buffered saline. Methyl-, butyl, and hexylxanthate as well as exo/exo D 609 were dissolved in phosphate-buffered saline (stock solution 10 mg/ml). 100 μl diluted blood and 100 μl diluted xanthate solution each were placed in 96-well microtiter plates to obtain final concentrations of 2, 1, 0.5, 0.25, 0.125, 0.063, and 0.031 mg/ml of xanthate. Saline served as the control. After incubation at room temperature for 30 minutes, a centrifugation at 5,000 g for 5 min was performed and the supernatants were removed. The absorption of the supernatants at 450 nm (OD 450) was measured using an ELISA-Reader. Dose-response curves (FIGS. 2 and 3) were used to determine the concentrations at which 50% of the maximal absorption was reached and at which, therefore, 50% of the erythrocytes were lysed (IC50).

[2] = Stabilization of exo/exo D 609 by cyclodextrin at room temperature (decomposition in water, pH after 45 days); format: physicochemical; conditions: for decomposition / pH value of the solution: after 45 days
Procedure: The xanthate, D 609, decomposes in aqueous solutions to form the tricyclodecanol, CS2, and KOH. […] The pH value of the individual solutions was determined after 45 days using PANPEHA strips (Schleicher & Schüll). […] The pH value of the solution containing cyclodextrin was measured to be 7.0. This corresponds to <0.1% decomposition. Accordingly, the rate of decomposition is at least 1000-fold lower in the presence of cyclodextrin.

female Balb C mice = test: Toxicity after intravenous application (survival 48 h after injection into the lateral tail vein); format: in vivo; conditions: for Animals receiving injections/surviving animals: 48 h
Procedure: The exo/exo isomer of D 609 or hexylxanthate were dissolved in 0.9% NaCl or 0.9% NaCl/30% hydroxy-beta-cyclodextrin at a concentration of 30 mg/ml. Subsequently, dilutions were prepared using 0.9% NaCl solution to obtain concentrations of 30, 20, 10, and 5 mg/ml D 609 or hexylxanthate. Three female Balb C mice each received injections of 0.2 ml/20 g body weight of each solutions into the lateral tail vein. The animals were monitored for 48 h after injection and survival was recorded.

[3] = tested on: DNA and RNA virus species; tumor cells; conditions: from literature and U.S. Pat. No. 4,602,037; cited from earlier work
[4] = tested on: models of Alzheimer's disease; conditions: from literature; cited from earlier work
multiple sclerosis model = conditions: from literature; cited from earlier work
animal model of stroke = conditions: from literature; cited from earlier work
lung edemas = conditions: from literature; cited from earlier work
HSV-1, strain Angelotti = test: Antiviral efficacy, plaque number in Calu-6 cells infected with HSV-1; format: cell-based; conditions: addition of cyclodextrin 1:1 or 1:2 to D609, Calu-6 cells, 72 h
Procedure: Human lung carcinoma cells (Calu-6) in D-MEM medium (supplemented with 10% fetal calf serum) were seeded in 24-well plates (Greiner) (3×10^6 cells/plate each). After incubation for 24 h at 37° C. in a 5% CO2 atmosphere, the medium was decanted and 0.1 ml viral suspension (HSV-1, strain Angelotti, 200 plaque-forming units/ml) were added. After incubation at 37° C. for one hour, fresh medium (DMEM, 10% serum, 0.85 g NaHCO3/I) containing D609 (exo/exo isomer) or a mixture of D609 and beta-hydroxypropyl-cyclodextrin (b-HP) (Sigma, Munich, No 33, 260-7) was added.
The following concentrations were set-up:
After 72 h, the medium was decanted and the plates were fixed with 3% formalin and stained with 0.5% crystal violet. After the plates were dried, the number of plaques per well was determined and the means±standard deviation were calculated. The results (dose-response curves) are plotted in FIG. 4. […] Accordingly, the addition of beta-hydroxypropyl-cyclodextrin has no influence on the antiviral activity of D609.

[5] = Stabilization effect of different cyclodextrins on D 609 at 60° C. (RP-18 thin layer plate); format: physicochemical; conditions: exo/exo D 609 with cyclodextrin, eight days at 60° C., TLC spots under UV (FIG. 1)
Procedure: Exo/exo D 609 was dissolved in solutions (100 mg/ml) containing various cyclodextrins (10 mg/ml). The samples were incubated for eight days at 60° C. 10 μl of each sample were diluted with 90 μl of water and 100 μl ethylacetate/3 mg/ml p-bromoacetophenone were added. After shaking for 30 minutes, 5 μl of the ethylacetate phase each were applied to a RP-18 thin layer plate and the plate was placed for 15 minutes in a TLC chamber containing acetonitrile as mobile phase. A freshly prepared solution of 9 mg/ml D 609 plus 1 mg/ml of a D 609 solution that had been incubated at 95° C. for 48 h (decomposition control) was used as calibration sample. The D 609-specific spots were visualized under UV light and photographed.

[6] = 10 mg/ml in water with 100 mg/ml cyclodextrin
[7] = in the presence of cyclodextrin
[8] = xanthate alone (absence of cyclodextrin)

In the case of `CCCCOC(=S)S` [Butyl, butylxanthate], the “% Decomposition − Cyclodextrin” value [1] is reported as 20%, the “% Decomposition + Cyclodextrin” value [1] is reported as 1% and the Stabilization factor [1] is reported as 20. The “hemolytic effect / dose-response curves in the presence versus absence of cyclodextrin” value (erythrocytes; FIGS. 2 and 3) was “no significant differences”, the “concentration of complete hemolysis” value (erythrocytes; absence of cyclodextrin) was 1000 µg/mL and the “50% hemolysis (IC50)” value (erythrocytes; absence of cyclodextrin) was 800 µg/mL. The “concentration of complete hemolysis” value (erythrocytes; presence of cyclodextrin) was 1000 µg/mL and the “50% hemolysis (IC50)” value (erythrocytes; presence of cyclodextrin) was 650 µg/mL.

In the case of `S=C([S-])OC1CC2CC1C1CCCC21.[K+]` (stereo not drawn) [D 609], the “% Decomposition − Cyclodextrin” value [1] is reported as 20%, the “% Decomposition + Cyclodextrin” value [1] is reported as 1% and the decomposition ([2]; 10 mg/ml in pure water) is reported as “complete decomposition”. The “pH value of the solution” value ([2]; 10 mg/ml in pure water) was 12.5, the decomposition [2, 6] was < 0.1% and the “pH value of the solution” value [2, 6] was 7.0. For the same compound, the “rate of decomposition lower in the presence of cyclodextrin” value ([2]; 45 days, with versus without cyclodextrin) was “at least 1000 fold”, the “Animals receiving injections/surviving animals” value (female Balb C mice; Dose 50 mg/kg) was 3/3 and the “Animals receiving injections/surviving animals” value (female Balb C mice; Dose 100 mg/kg) was 3/0. The “Animals receiving injections/surviving animals” value (female Balb C mice; Dose 200 mg/kg) was 3/0, the “Animals receiving injections/surviving animals” value (female Balb C mice; Dose 300 mg/kg) was 3/0 and the “number of surviving animals, effect of cyclodextrin” value (female Balb C mice; at the higher D 609-doses) was “clearly increased”. The LD50 (female Balb C mice; [7]) was 250 mg/kg, the LD50 (female Balb C mice; [8]) was 75 mg/kg and the “concentration of complete hemolysis” value (erythrocytes) was 500 µg/mL. The “hemolytic effect / dose-response curves in the presence versus absence of cyclodextrin” value (erythrocytes) was “reduced strongly”, the “increase of the IC50 by a factor” value (erythrocytes) was 6.4 and the “50% hemolysis (IC50)” value (erythrocytes; absence of cyclodextrin) was 125 µg/mL. The “50% hemolysis (IC50)” value (erythrocytes; presence of cyclodextrin) was 800 µg/mL, the known activity [3] was “antiviral and antitumoral activity” and the “effect in models of Alzheimer's disease” value [4] was “protective properties”. The “effect in a multiple sclerosis model” value (multiple sclerosis model) was “protective effect”, the “effect in an animal model of stroke” value (animal model of stroke) was “protective effect” and the “effect on lung edemas” value (lung edemas) was “protection from lung edemas”.

For `CCCCCCCCCCOC(=S)S` [Decyl, decylxanthate], the “% Decomposition − Cyclodextrin” value [1] was 10% and the “% Decomposition + Cyclodextrin” value [1] was 1%.

In the case of `CCOC(=S)S` [Ethyl], the “% Decomposition − Cyclodextrin” value [1] is reported as 10%, the “% Decomposition + Cyclodextrin” value [1] is reported as 1% and the Stabilization factor [1] is reported as 10.

In the case of `CCCCCCOC(=S)S` [Hexylxanthate, hexylxanthate], the “% Decomposition − Cyclodextrin” value [1] is reported as 20%, the “% Decomposition + Cyclodextrin” value [1] is reported as 1% and the “Animals receiving injections/surviving animals” value (female Balb C mice; Dose 50 mg/kg) is reported as 3/3. For the same compound, the “Animals receiving injections/surviving animals” value (female Balb C mice; Dose 100 mg/kg) was 3/2, the “Animals receiving injections/surviving animals” value (female Balb C mice; Dose 200 mg/kg) was 3/0 and the “Animals receiving injections/surviving animals” value (female Balb C mice; Dose 300 mg/kg) was 3/0. For the same compound, the LD50 (female Balb C mice; [7]) was 130 mg/kg, the LD50 (female Balb C mice; [8]) was 130 mg/kg and the “concentration of complete hemolysis” value (erythrocytes) was 500 µg/mL. The “hemolytic effect / dose-response curves in the presence versus absence of cyclodextrin” value (erythrocytes) was “reduced strongly”, the “increase of the IC50 by a factor” value (erythrocytes) was 2.5 and the “50% hemolysis (IC50)” value (erythrocytes; absence of cyclodextrin) was 300 µg/mL. The “50% hemolysis (IC50)” value (erythrocytes; presence of cyclodextrin) was 750 µg/mL.

In the case of `CC(C)OC(=S)S` [Isopropyl, isopropylxanthate], the “% Decomposition − Cyclodextrin” value [1] is reported as 20%, the “% Decomposition + Cyclodextrin” value [1] is reported as 1% and the Stabilization factor [1] is reported as 20.

With `COC(=S)S` [Methyl, methylxanthate] the “% Decomposition − Cyclodextrin” value [1] was 50%, the “% Decomposition + Cyclodextrin” value [1] was 1% and the Stabilization factor [1] was 50. The “hemolytic effect / dose-response curves in the presence versus absence of cyclodextrin” value (erythrocytes; FIGS. 2 and 3) was “no significant differences”, the “concentration of complete hemolysis” value (erythrocytes; absence of cyclodextrin) was 1000 µg/mL and the “50% hemolysis (IC50)” value (erythrocytes; absence of cyclodextrin) was 600 µg/mL. The “concentration of complete hemolysis” value (erythrocytes; presence of cyclodextrin) was 1000 µg/mL and the “50% hemolysis (IC50)” value (erythrocytes; presence of cyclodextrin) was 650 µg/mL.

For `CCCOC(=S)S` [Propyl, propylxanthate], the “% Decomposition − Cyclodextrin” value [1] was 20%, the “% Decomposition + Cyclodextrin” value [1] was 2% and the Stabilization factor [1] was 10.

For beta-hydroxypropyl-cyclodextrin, the “influence on the antiviral activity of D609” value (HSV-1, strain Angelotti) was “no influence”.

In the case of methyl-beta-cyclodextrin, the “protective effect from decomposition of D 609” value [5] is reported as “works the best by far”.
